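These data come from cells grown in 96-well plates and exposed to compound for 48 hours at five concentrations. GI50 = concentration required for 50% inhibition of growth. TGI: total growth inhibition.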
Key:
Assay in all cases: growth of human tumour cells (NCI), 48 h
[1] = system: 786-0 renal
[2] = system: A498 renal
[3] = system: A549 NSCLC
[4] = system: ACHN renal
[5] = system: BT-549 breast
[6] = system: CAKI-1 renal
[7] = system: CCRF-CEM leukemia
[8] = system: COLO 205 colon
[9] = system: DU-145 prostate
[10] = system: EKVX NSCLC
[11] = system: HCC-2998 colon
[12] = system: HCT-116 colon
[13] = system: HCT-15 colon
[14] = system: HL-60(TB) leukemia
[15] = system: HOP-62 NSCLC
[16] = system: HOP-92 NSCLC
[17] = system: HS 578T breast
[18] = system: HT29 colon
[19] = system: IGROV1 ovarian
[20] = system: K-562 leukemia
[21] = system: KM12 colon
[22] = system: LOX IMVI melanoma
[23] = system: M14 melanoma
[24] = system: MALME-3M melanoma
[25] = system: MCF7 breast
[26] = system: MDA-MB-231 breast
[27] = system: MDA-MB-435
[28] = system: MDA-MB-468 breast
[29] = system: MOLT-4 leukemia
[30] = system: NCI-H226 lung
[31] = system: NCI-H23 lung
[32] = system: NCI-H460 lung
[33] = system: NCI-H522 lung
[34] = system: NCI/ADR-RES ovarian
[35] = system: OVCAR-3 ovarian
[36] = system: OVCAR-4 ovarian
[37] = system: OVCAR-5 ovarian
[38] = system: OVCAR-8 ovarian
[39] = system: PC-3 prostate
[40] = system: RPMI-8226 leukemia
[41] = system: RXF 393 renal
[42] = system: SF-268 CNS
[43] = system: SF-295 CNS
[44] = system: SF-539 CNS
[45] = system: SK-MEL-2 melanoma
[46] = system: SK-MEL-28 melanoma
[47] = system: SK-MEL-5 melanoma
[48] = system: SK-OV-3 ovarian
[49] = system: SN12C renal
[50] = system: SNB-19 CNS
[51] = system: SNB-75 CNS
[52] = system: SR leukemia
[53] = system: SW-620 colon
[54] = system: T-47D breast
[55] = system: TK-10 renal
[56] = system: U251 CNS
[57] = system: UACC-257 melanoma
[58] = system: UACC-62 melanoma
[59] = system: UO-31 renal

C#C[C@]1(O)CC[C@H]2[C@@H]3CC=C4c5sc(Nc6ccc(N(C)C)cc6)nc5CC[C@]4(C)[C@H]3CC[C@@]21C
GI50 [1]: 647 nM | TGI [1]: 5340 nM | GI50 [2]: 1880 nM | TGI [2]: 4180 nM | GI50 [3]: 2500 nM | TGI [3]: 12500 nM | GI50 [4]: 2240 nM | TGI [4]: 10800 nM | GI50 [5]: 642 nM | TGI [5]: 3070 nM | GI50 [6]: 1740 nM | TGI [6]: > 23600 nM | GI50 [7]: 812 nM | TGI [7]: > 86600 nM | GI50 [8]: 2620 nM | TGI [8]: 6820 nM | GI50 [9]: 2550 nM | TGI [9]: 10800 nM | GI50 [10]: 1590 nM | TGI [10]: 6490 nM | GI50 [11]: 3230 nM | TGI [11]: 7820 nM | GI50 [12]: 1010 nM | TGI [12]: 3930 nM | GI50 [13]: 791 nM | TGI [13]: 2670 nM | GI50 [14]: 2400 nM | TGI [14]: 12300 nM | GI50 [15]: 1890 nM | TGI [15]: 7380 nM | GI50 [16]: 2650 nM | TGI [16]: 17800 nM | GI50 [17]: 417 nM | TGI [17]: 3980 nM | GI50 [18]: 1660 nM | TGI [18]: 4300 nM | GI50 [19]: 3220 nM | TGI [19]: 10100 nM | GI50 [20]: 1860 nM | TGI [20]: 15800 nM | GI50 [21]: 2150 nM | TGI [21]: 7110 nM | GI50 [22]: 923 nM | TGI [22]: 2410 nM | GI50 [23]: 1040 nM | TGI [23]: 4510 nM | GI50 [24]: 858 nM | TGI [24]: 2900 nM | GI50 [25]: 948 nM | TGI [25]: 4210 nM | GI50 [26]: 1270 nM | TGI [26]: 3330 nM | GI50 [27]: 1660 nM | TGI [27]: 7370 nM | GI50 [28]: 1510 nM | TGI [28]: 4360 nM | GI50 [29]: 374 nM | TGI [29]: 5530 nM | GI50 [30]: 2410 nM | TGI [30]: 10900 nM | GI50 [31]: 1330 nM | TGI [31]: 5140 nM | GI50 [32]: 1440 nM | TGI [32]: 5610 nM | GI50 [33]: 1490 nM | TGI [33]: 3250 nM | GI50 [34]: 2540 nM | TGI [34]: 10700 nM | GI50 [35]: 2300 nM | TGI [35]: 7190 nM | GI50 [36]: 2540 nM | GI50 [37]: 2410 nM | TGI [37]: 8220 nM | GI50 [38]: 2990 nM | TGI [38]: 11000 nM | GI50 [39]: 999 nM | TGI [39]: 9290 nM | GI50 [40]: 248 nM | TGI [40]: 2200 nM | GI50 [41]: 190 nM | TGI [41]: 715 nM | GI50 [42]: 1870 nM | TGI [42]: 10600 nM | GI50 [43]: 225 nM | TGI [43]: 557 nM | GI50 [44]: 284 nM | TGI [44]: 1250 nM | GI50 [45]: 1460 nM | TGI [45]: 4320 nM | GI50 [46]: 651 nM | TGI [46]: 1880 nM | GI50 [47]: 1490 nM | TGI [47]: 2920 nM | GI50 [48]: 1350 nM | TGI [48]: 3690 nM | GI50 [49]: 2630 nM | TGI [49]: 7840 nM | GI50 [50]: 1490 nM | TGI [50]: 6010 nM | GI50 [51]: 1290 nM | TGI [51]: 6320 nM | GI50 [52]: 567 nM | TGI [52]: 20100 nM | GI50 [53]: 1100 nM | TGI [53]: 3470 nM | GI50 [54]: 2640 nM | TGI [54]: 15100 nM | GI50 [55]: 7560 nM | TGI [55]: 33300 nM | GI50 [56]: 735 nM | TGI [56]: 4440 nM | GI50 [57]: 2010 nM | TGI [57]: 6690 nM | GI50 [58]: 1270 nM | TGI [58]: 3010 nM | GI50 [59]: 1500 nM | TGI [59]: 5210 nM
